Source: PMC5895798, “Allosteric regulation alters carrier domain translocation in pyruvate carboxylase” (Nature Communications, 2018)
Where two headings read alike, the source gives them in different places.

Key:
Type in all cases: biochemical
AnPC [1] = molecular target: T1, AnPC (Aspergillus nidulans, UniProt Q5B4R8); assay: shift of L-aspartate Ki in coupled assay; settings: 0.1 mM acetyl CoA; competes with L-aspartate, no activation; pH 7.8, 25 °C
T1 construct: gene ANIA_04462; full length, N-terminal (His)9 tag, pET-17b, E. coli BL21(DE3) with BirA (biotinylated), 130 kDa subunit, tetramer
T1 sequence (Q5B4R8 1-1196): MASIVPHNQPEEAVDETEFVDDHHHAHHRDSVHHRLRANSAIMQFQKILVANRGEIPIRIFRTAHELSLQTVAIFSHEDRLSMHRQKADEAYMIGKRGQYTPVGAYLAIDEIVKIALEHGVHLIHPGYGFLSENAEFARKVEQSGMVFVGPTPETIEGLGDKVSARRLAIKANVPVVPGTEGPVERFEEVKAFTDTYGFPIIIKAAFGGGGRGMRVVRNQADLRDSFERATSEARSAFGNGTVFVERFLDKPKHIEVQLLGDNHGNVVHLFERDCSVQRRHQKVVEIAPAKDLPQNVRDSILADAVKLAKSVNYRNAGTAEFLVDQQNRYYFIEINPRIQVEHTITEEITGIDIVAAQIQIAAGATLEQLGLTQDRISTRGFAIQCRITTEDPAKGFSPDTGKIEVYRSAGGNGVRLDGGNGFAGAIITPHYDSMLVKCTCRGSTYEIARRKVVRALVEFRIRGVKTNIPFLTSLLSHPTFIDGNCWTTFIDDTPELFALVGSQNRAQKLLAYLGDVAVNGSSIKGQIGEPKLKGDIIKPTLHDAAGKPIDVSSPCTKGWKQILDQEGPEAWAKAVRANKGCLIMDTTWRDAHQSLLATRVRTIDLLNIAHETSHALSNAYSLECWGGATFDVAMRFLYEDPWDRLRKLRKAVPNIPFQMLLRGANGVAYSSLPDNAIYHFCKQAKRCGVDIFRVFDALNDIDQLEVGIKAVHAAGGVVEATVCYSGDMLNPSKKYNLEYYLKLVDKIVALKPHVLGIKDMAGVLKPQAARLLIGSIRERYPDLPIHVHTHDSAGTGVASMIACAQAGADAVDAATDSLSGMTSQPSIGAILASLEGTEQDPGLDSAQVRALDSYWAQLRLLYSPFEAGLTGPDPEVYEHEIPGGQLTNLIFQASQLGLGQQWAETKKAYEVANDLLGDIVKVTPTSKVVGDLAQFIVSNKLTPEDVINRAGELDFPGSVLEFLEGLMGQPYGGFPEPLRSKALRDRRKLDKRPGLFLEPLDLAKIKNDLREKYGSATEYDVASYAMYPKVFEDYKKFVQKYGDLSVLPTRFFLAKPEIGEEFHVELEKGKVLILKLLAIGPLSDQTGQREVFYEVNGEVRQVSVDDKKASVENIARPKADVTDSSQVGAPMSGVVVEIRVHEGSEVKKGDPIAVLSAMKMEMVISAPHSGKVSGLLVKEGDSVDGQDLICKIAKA

AnPC [2] = molecular target: T1, AnPC; assay: coupled malate dehydrogenase assay of pyruvate carboxylation, […] nm; settings: read-out: + 0 mM acetyl coenzyme A / Ki
RePC [3] = molecular target: T2, RePC (Rhizobium etli, UniProt Q2K340); assay: as above; settings: hybrid tetramer population (hybrid A) of two co-expressed domain-inactivated mutants; no acetyl CoA; 25 mM NaHCO3, 2.5 mM MgATP, 12 mM pyruvate, pH 7.8, 25 °C; allosteric; read-out: + 0 mM acetyl coenzyme A / Ki
T2 construct: gene pyc; full length, N-terminal (His)9 tag, pET-17b, E. coli BL21(DE3) with BirA (biotinylated), 126 kDa subunit, homotetramer

RePC [4] = molecular target: T2, RePC; assay: as above; settings: read-out: + 0 mM acetyl coenzyme A / Ki

Row | Structure (SMILES) | shift of L-aspartate Ki in coupled assay (AnPC [1]) | Ki (AnPC [2]) [mM] | Ki (RePC [3]) [mM] | Ki (RePC [4]) [mM]
1 | CC(=O)SCCNC(=O)CCNC(=O)[C@H](O)C(C)(C)COP(=O)(O)OP(=O)(O)OC[C@H]1O[C@@H](n2cnc3c(N)ncnc32)[C@H](O)[C@@H]1OP(=O)(O)O [acetyl CoA] | This confirms that acetyl CoA does, indeed, bind to AnPC | – | – | –
2 | N[C@@H](CC(=O)O)C(=O)O [L-aspartate] | – | 2.6 ± 0.1 | 6.2 ± 0.5 | 4.7 ± 0.7
